ChEMBL document CHEMBL5226308, “Amide-Amine Replacement in Indole-2-carboxamides Yields Potent Mycobactericidal Agents with Improved Water Solubility” (ACS Med Chem Lett, 2021)
The source made the active and inactive calls. The calls are words filed in the database; no cut-off is given here.

Columns and labels:
[1] = Ratio of MIC90 for antimycobacterial activity against Mycobacterium tuberculosis H37Rv M47-4 harboring mmpL3 G2041A/V681I mutant to MIC90 for antimycobacterial activity against wild type Mycobacterium tuberculosis H37Rv ATCC 27294; assay type: functional
[2] = Ratio of MIC90 for antimycobacterial activity against Mycobacterium tuberculosis H37Rv M47-3 harboring mmpL3 Ins2128CAG/Ins710Q mutant to MIC90 for antimycobacterial activity against wild type Mycobacterium tuberculosis H37Rv ATCC 27294; assay type: functional
[3] = Ratio of MIC90 for antimycobacterial activity against Mycobacterium tuberculosis H37Rv M16-4 harboring mmpL3 T2051C/V684A mutant to MIC90 for antimycobacterial activity against wild type Mycobacterium tuberculosis H37Rv ATCC 27294; assay type: functional
[4] = Ratio of MIC90 for antimycobacterial activity against Mycobacterium tuberculosis H37Rv M16-5 harboring mmpL3 G758A/G253E mutant to MIC90 for antimycobacterial activity against wild type Mycobacterium tuberculosis H37Rv ATCC 27294; assay type: functional
[5] = Ratio of MIC90 for antimycobacterial activity against Mycobacterium tuberculosis H37Rv M33-1 harboring mmpL3 G1927A/V643M mutant to MIC90 for antimycobacterial activity against wild type Mycobacterium tuberculosis H37Rv ATCC 27294; assay type: functional
[6] = Ratio of MIC90 for antimycobacterial activity against Mycobacterium tuberculosis H37Rv M16-3 harboring mmpL3 T2051G/V684G mutant to MIC90 for antimycobacterial activity against wild type Mycobacterium tuberculosis H37Rv ATCC 27294; assay type: functional
[7] = Ratio of MIC90 for antimycobacterial activity against Mycobacterium tuberculosis H37Rv M47-1 harboring mmpL3 G2098A/A700T mutant to MIC90 for antimycobacterial activity against wild type Mycobacterium tuberculosis H37Rv ATCC 27294; assay type: functional
[8] = Ratio of MIC90 for antimycobacterial activity against Mycobacterium tuberculosis H37Rv M16-2 harboring mmpL3 G758A/G253E mutant to MIC90 for antimycobacterial activity against wild type Mycobacterium tuberculosis H37Rv ATCC 27294; assay type: functional
[9] = Ratio of MIC90 for antimycobacterial activity against Mycobacterium tuberculosis H37Rv M47-2 harboring mmpL3 A730T/I244F mutant to MIC90 for antimycobacterial activity against wild type Mycobacterium tuberculosis H37Rv ATCC 27294; assay type: functional
[10] = Ratio of MIC90 for antimycobacterial activity against Mycobacterium tuberculosis H37Rv M16-1 harboring mmpL3 T854C/V258A mutant to MIC90 for antimycobacterial activity against wild type Mycobacterium tuberculosis H37Rv ATCC 27294; assay type: functional
[11] = tested on: Mycobacterium tuberculosis; assay: Antimycobacterial activity against Mycobacterium tuberculosis H37Rv M33-1 harboring V643M mutant assessed as inhibition of bacterial growth incubated for 7 days by broth dilution method; assay type: functional, organism-based; details: time 7.0 day
[12] = tested on: Mycobacterium tuberculosis; assay: Antimycobacterial activity against Mycobacterium tuberculosis H37Rv M16-5 harboring G253E mutant assessed as inhibition of bacterial growth incubated for 7 days by broth dilution method; assay type: functional, organism-based; details: time 7.0 day
[13] = tested on: Mycobacterium tuberculosis; assay: Antimycobacterial activity against Mycobacterium tuberculosis H37Rv M16-1 harboring V285A mutant assessed as inhibition of bacterial growth incubated for 7 days by broth dilution method; assay type: functional, organism-based; details: time 7.0 day
[14] = tested on: Mycobacterium tuberculosis; assay: Antimycobacterial activity against Mycobacterium tuberculosis H37Rv M16-3 harboring V684G mutant assessed as inhibition of bacterial growth incubated for 7 days by broth dilution method; assay type: functional, organism-based; details: time 7.0 day
[15] = tested on: Mycobacterium tuberculosis; assay: Antimycobacterial activity against Mycobacterium tuberculosis H37Rv M47-1 harboring A700T mutant assessed as inhibition of bacterial growth incubated for 7 days by broth dilution method; assay type: functional, organism-based; details: time 7.0 day
[16] = tested on: Mycobacterium tuberculosis; assay: Antimycobacterial activity against Mycobacterium tuberculosis H37Rv M16-4 harboring V684A mutant assessed as inhibition of bacterial growth incubated for 7 days by broth dilution method; assay type: functional, organism-based; details: time 7.0 day
[17] = tested on: Mycobacterium tuberculosis; assay: Antimycobacterial activity against Mycobacterium tuberculosis H37Rv M47-4 harboring V681I mutant assessed as inhibition of bacterial growth incubated for 7 days by broth dilution method; assay type: functional, organism-based; details: time 7.0 day
[18] = tested on: Mycobacterium tuberculosis; assay: Antimycobacterial activity against Mycobacterium tuberculosis H37Rv M47-2 harboring I244F mutant assessed as inhibition of bacterial growth incubated for 7 days by broth dilution method; assay type: functional, organism-based; details: time 7.0 day
[19] = tested on: Mycobacterium tuberculosis; assay: Antimycobacterial activity against Mycobacterium tuberculosis H37Rv M47-3 harboring Ins710Q mutant assessed as inhibition of bacterial growth incubated for 7 days by broth dilution method; assay type: functional, organism-based; details: time 7.0 day

| SMILES | Ratio [1] | Ratio [2] | Ratio [3] | Ratio [4] | Ratio [5] | Ratio [6] | Ratio [7] | Ratio [8] | Ratio [9] | Ratio [10] | Activity [11] | Activity [12] | Activity [13] | Activity [14] | Activity [15] | Activity [16] | Activity [17] | Activity [18] | Activity [19] |
| --- | --- | --- | --- | --- | --- | --- | --- | --- | --- | --- | --- | --- | --- | --- | --- | --- | --- | --- | --- |
| O=C(NC1CCCCCCC1)c1cc2ccc(C(F)(F)F)cc2[nH]1 | 5 | 5 | 5 | 5 | 5 | 5 | 5 | 5 | 5 | 5 | – | – | – | – | – | – | – | – | – |
| c1ccc2[se]c(CNC3CCCCCCC3)cc2c1 | – | – | – | – | – | – | – | – | – | – | inactive | inactive | inactive | inactive | inactive | inactive | inactive | inactive | inactive |
| O=C(NC1CCCCCCC1)c1cc2ccccc2s1 | – | – | – | – | – | – | – | – | – | – | inactive | inactive | inactive | inactive | inactive | inactive | inactive | inactive | inactive |
| O=C(NC1CCCCCCC1)c1cc2ccccc2[se]1 | – | – | – | – | – | – | – | – | – | – | inactive | inactive | inactive | inactive | inactive | inactive | inactive | inactive | inactive |
| c1ccc2sc(CNC3CCCCCCC3)cc2c1 | 5 | 5 | 5 | 5 | 5 | 5 | 5 | 5 | 5 | 5 | – | – | – | – | – | – | – | – | – |
| FC(F)(F)c1ccc2cc(CNC3CCCCCCC3)[nH]c2c1 | 5 | 5 | 5 | 5 | 5 | 5 | 5 | 5 | 5 | 5 | – | – | – | – | – | – | – | – | – |
